How the values were obtained:
[1] = system: NOTCH signaling (NICD1, HES1, HESS, HEY1) in ACC112 cells; assay: NICD1 and NOTCH downstream targets by IHC and western blot; type: cell-based, Human; conditions: 10 nM
Description: (§1) FIG. 10B. Effect of Compound (1) monotherapy on NICD1 in ACC cell lines. NICD1 immunohistochemical staining of ACC83 (left) or ACC112 (right) cells treated with either 10 nM Compound (1) or DMSO (control) for 14 days.
(§2) FIG. 10C. Effect of Compound (1) monotherapy on NOTCH downstream targets in ACC cell lines. Cell lysates were collected at day 14 from Compound (1)- or DMSO (control)-treated ACC83 and ACC112 cells and analyzed by western blot for the expression of NICD1, HES1, HESS and HEY1 proteins, with GAPDH used a loading control.
(§3) Methods: The naturally immortalized sublingual gland derived Human ACC cell line ACC83 and the Human HPV-transformed submaxillary gland derived cell line ACC112 were treated with Compound (1) at 10 nM concentration or DMSO (control) for 14 days. ACC83 cells were cultured in RPMI 1640 medium supplemented with 10% FBS, 10,000 u/ml penicillin-streptomycin and 1 ml L-glutamine. ACC112 cell line was additionally supplemented with 20 ng/ml epidermal growth factor, 400 ng/ml hydrocortisone and 5 μg/ml insulin. Cell viability relative to day 0 was determined using an Alamar Blue assay on days 7, 11 and 14. Cell lines were stained with NICD1 (Cell Signaling, 4147S, 1:200), HES1 (Abcam, ab71559, 1:400), HEY1 (Millipore, AB5714, 1:200), and HESS (Novus Biologicals, NBP241305, 1:200) antibodies using iView DAB detection and the Ventana BenchMark XT staining system (Roche). Area and intensity of diaminobenzidine (DAB) signal was quantified using IHC Profiler color deconvolution plugin within ImageJ software.

[2] = system: NOTCH signaling (NICD1, HES1, HESS, HEY1) in ACC83 cells; assay: as above; type: cell-based, Human; conditions: 10 nM
Description: as §1, §2, §3

ACC112 cells = assay: Wound healing (migration) assay; type: cell-based, Human; conditions: 10 nM for 14 days, vs untreated cells
Description: FIG. 11B. Effect of Compound (1) monotherapy on cell migration in ACC112 cell line. ACC112 cells were treated with either 10 nM Compound (1) or DMSO (control) for 14 days. Cells were then plated in wells containing inserts and allowed to attach for 12 h. The inserts were removed, and the gap was photographed at 0 h and at 12 h (left panel).
Methods: A wound healing assay was carried out to assess migration potential of ACC83 and ACC112 cells. Cells were cultured in triplicate in 6-well plates (1×10^6 cells per well) containing culture inserts (Ibidi). On reaching 90% confluence, the inserts were removed, and cells were cultured for 12 hr. Gap area in individual wells was determined using ImageJ. The gap area percentage was calculated as the gap area at 12 hr relative to the gap area at 0 hr. A Boyden chamber assay was carried out to assess the invasion potential of ACC83 and ACC112 cells. Cells were cultured (1×10^4 cells per well) in triplicate into the upper chamber of Matrigel-coated transwell chambers (8-μm pore size, Corning) in serum-free medium, while 10% FBS medium was added to the bottom chamber to stimulate invasion. After 24 h incubation, the cells in the upper chamber were carefully removed with cotton swab, and the cells that had invaded through Matrigel were stained with 1DiffQuick, photographed at 40× magnification and quantified across three random fields.

[3] = Intravenous versus oral pharmacokinetics in tumor-free mice; type: in vivo; conditions: 1 mg/kg (minimum effective dose), data not shown
Description: Methods: Intravenous and oral administration of Compound (1) at minimum effective dose (1 mg/kg) was first examined to determine preferred mode of administration and plasma total free active drug concentration was measured.

CN1C(=O)[C@@H](NC(=O)[C@H](CCC(F)(F)F)[C@H](CCC(F)(F)F)C(N)=O)N=C(c2ccccc2)c2ccccc21 [Compound (1), (2R,3S)—N-((3S)-1-methyl-2-oxo-5-phenyl-2,3-dihydro-1H-1,4-benzodiazepin-3-yl)-2,3-bi s(3,3,3-trifluoropropyl)succinamide]
NICD1 (Western blotting and IHC) ([1]; 14 days, vs DMSO): reduction in NICD1 | expression levels of NOTCH downstream targets HES1, HESS and HEY1 ([1]; day 14, western blot): substantially downregulated expression levels | NICD1 (Western blotting and IHC) ([2]; 14 days, vs DMSO): reduction in NICD1 | expression levels of NOTCH downstream targets HES1, HESS and HEY1 ([2]; day 14, western blot): substantially downregulated expression levels | cell migration (relative gap width at 12 h) (ACC112 cells): significantly inhibited the migration | pharmacokinetic profile, intravenous versus oral administration [3]: very similar pharmacokinetic profile

From patent US20230381196A1, “COMPOSITIONS COMPRISING BISFLUOROALKYL-1,4-BENZODIAZEPINONE COMPOUNDS FOR TREATING ADENOID CYSTIC CARCINOMA” (AYALA PHARMACEUTICALS INC., priority 2020, published 2023)
